Laboratory results reported in patent US9603849B2, “Uses of orvepitant” (NERRE THERAPEUTICS LIMITED, priority 2012, dated 2017).

Target: NK-1 receptor (Meriones unguiculatus, UniProt Q5DUB1)
Assay: GR73632-induced hindlimb scratching behaviour in the Mongolian gerbil
Type: in vivo
Conditions: all doses tested (from 0.1 to 10.0 mg/kg)
Text: 5) Particularly the antipruritic effect of orvepitant maleate was determinated in GR73632-induced scratching behaviour in the Mongolian gerbil. According to this metholody the scratching behaviour was induced by GR73632 which is a specific agonist of the NK-1 receptor.
72 male Mongolian gerbils (58-78 g) after a minimum habituation period of 10 days prior to study commencement, were acclimatised to the procedure room in their home cages, with food and water available ad libitum. The day before the experiment was due to commence a 1 cm×1 cm squared area between the shoulder blades was shaved free of hair.
Habituation to the apparatus (custom made observation chambers; approximately 30×30 cm; 2 animals per observation) took place 30 minutes prior to induction of scratching behaviours using GR73632.
A 10 mg/kg stock solution of orvepitant maleate was made by dissolving 20 mg of orvepitant maleate Form 1 in 20 mls of vehicle (5% DMSO & 95% HPMC (0.5%)). This stock solution was serially diluted to prepare doses of 0.1, 0.3, 1.0, 3.0 or 10 mg/kg orvepitant maleate.
At T=−60 mins mongolian gerbils were dosed with orvepitant maleate (0.1, 0.3, 1.0, 3.0 or, 10 mg/kg p.o.). Gerbils were allocated to dosing groups based on a Latin square design. 30 Minutes later (T=−30 mins) gerbils were placed into the observation chamber for 30 minutes habituation. At T=0 Gerbils were then dosed with GR73632 (30 nmol/100 uL; i.d.) between the shoulder blades and their subsequent hindlimb scratching behaviour recorded using GeoVision surveillance software over a 30 minute period.
Playing back of the video served for counting scratching behaviour. […] Cumulative frequency and duration (secs) of scratching was scored in 5 min epochs. Treatment groups were randomised based on a Latin Square design. The experimenter was blinded to the treatment groups.
Repeated measures ANOVA followed by Planned comparison test using GraphPad Prism. (p<0.05 considered significant). Data were analysed by comparing treatment groups to control group at each time point.

Chain of NK-1 receptor (Q5DUB1 whole entry): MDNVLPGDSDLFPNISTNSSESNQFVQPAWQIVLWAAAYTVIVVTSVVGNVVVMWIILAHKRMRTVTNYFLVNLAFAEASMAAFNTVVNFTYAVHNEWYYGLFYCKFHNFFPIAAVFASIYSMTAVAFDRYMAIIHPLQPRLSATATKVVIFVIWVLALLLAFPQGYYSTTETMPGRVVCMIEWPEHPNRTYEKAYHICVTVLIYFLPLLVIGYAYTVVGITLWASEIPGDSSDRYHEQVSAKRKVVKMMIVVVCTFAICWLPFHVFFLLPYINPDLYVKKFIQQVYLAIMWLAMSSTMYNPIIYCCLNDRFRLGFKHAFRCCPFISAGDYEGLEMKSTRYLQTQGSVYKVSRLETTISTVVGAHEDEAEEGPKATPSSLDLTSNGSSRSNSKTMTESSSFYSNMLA

SMILES: Cc1cc(F)ccc1[C@H]1C[C@@H](N2CCN3C(=O)CC[C@H]3C2)CCN1C(=O)N(C)[C@H](C)c1cc(C(F)(F)F)cc(C(F)(F)F)c1 [Orvepitant, 2-(R)-(4-Fluoro-2-methyl-phenyl)-4-(S)-((8aS)-6-oxo-hexahydro-pyrrolo[1,2-a]-pyrazin-2-yl)-piperidine-1-carboxylic acid [1-(R)-(3,5-bis-trifluoromethyl-phenyl)-ethyl]-methylamide]
- inhibition of GR73632 induced hindlimb scratching: profound inhibition
